This is an account of results in publication PMC6222832, “Kinetic Characterization of Novel HIV-1 Entry Inhibitors: Discovery of a Relationship between Off-Rate and Potency” (Molecules : A Journal of Synthetic Chemistry and Natural …, 2018).

The target of data set [1] is HIV-1 B41 SOSIP.664 gp140 trimer (Human immunodeficiency virus type 1, UniProt B3UES2, A505C/E513R/I563P/INS515RR/K514R/T609C). Type of data set: binding.
Data set [2] deals with HIV-1 JR-CSF Env pseudotyped HIV-1. As to the kind of experiment: microbe, parasite or virus in culture. To be noted: Human immunodeficiency virus 1, U87/CD4/CCR5, 48 h, read-out: IC50 JR-CSF. Format: cell-based.
In data set [3] the test system is HIV-1 B41 Env pseudotyped HIV-1. Description: microbe, parasite or virus in culture. Type of data set: cell-based. To be noted: Human immunodeficiency virus 1, U87/CD4/CCR5, 48 h, read-out: IC50 B41.
For data set [4], the system named is HIV-1B41 and HIV-1JR-CSF Env pseudotyped virions. Description: microbe, parasite or virus in culture. Type of data set: cell-based. To be noted: Human immunodeficiency virus 1, read-out: Median IC50.
Data set [5] addresses B41 SOSIP.664 gp140 trimer (Human immunodeficiency virus type 1, UniProt B3UES2, A505C/E513R/I563P/INS515RR/K514R/T609C). Type of data set: binding, HIV-1.
A short description of data set [6]: in vitro. To be noted: human.

Molecules are shown by their SMILES.

One may read the IC50 as the concentration that inhibits the measured activity by half. `COc1cnc(-n2cnc(C)n2)c2[nH]cc(C(=O)C(=O)N3CCN(C(=O)c4ccccc4)CC3)c12` [BMS-626529, reference compound] showed a ka in data set [1] of 38900 M⁻¹ s⁻¹. This compound yielded a kd in data set [1] of 0.00059 s⁻¹. In addition, the IC50 was 0.06 ± 0.005 nM in data set [2], 0.05 ± 0.006 nM in data set [3] and 0.055 nM in data set [4].

As for `COc1cnc(-n2cnc(C)n2)c2[nH]cc(C(=O)C(=O)N3CC4CN(C(=O)c5ccccc5)CC4C3)c12` (centres unmarked) [SC11], the ka in data set [5] was 4330 M⁻¹ s⁻¹. The compound also yielded a kd in data set [5] of 0.000287 s⁻¹. Further, the figures for the IC50 in data set [2], in data set [3] and in data set [4] were 0.6 ± 0.1 nM, 2 ± 0.2 nM and approximately 2 nM, respectively. For the same compound, in data set [6], the CC50 at 48 h was more than 50000 nM.

`COc1cnc(-n2cnc(C)n2)c2[nH]cc(C(=O)C(=O)N3CC(CSC(=O)c4ccccc4)C3)c12` [SC16] gave a ka in data set [5] of 86200 M⁻¹ s⁻¹. The compound further came in with a kd in data set [5] of 0.00598 s⁻¹. Besides, the values for the IC50 in data set [2], in data set [3] and in data set [4] were 29 ± 8 nM, 37 ± 5 nM and 33 nM, respectively. This compound displayed a CC50 at 48 h in data set [6] of more than 50000 nM.

In the case of `COc1cnc(-n2cnc(C)n2)c2[nH]cc(C(=O)C(=O)N(C)C3CN(C(=O)c4ccccc4)C3)c12` [SC18], the ka in data set [5] stood at 15900 M⁻¹ s⁻¹. Further, the kd in data set [5] stood at 0.0248 s⁻¹. For the same compound, the IC50 was determined as 132 ± 4 nM in data set [2], 360 ± 12 nM in data set [3] and 246 nM in data set [4]. Further, in data set [6], the CC50 at 48 h is more than 50000 nM.

`COc1cnc(-n2cnc(C)n2)c2[nH]cc(C(=O)C(=O)N3CC4C=NN(c5nnnn5-c5ccccc5)C4C3)c12` (centres unmarked) [SC39] registered a ka in data set [5] of 1390 M⁻¹ s⁻¹. For the same compound, the kd in data set [5] turned out to be 0.0381 s⁻¹. The IC50 in data set [2] was 143 ± 52 nM; in data set [3] it was 5320 ± 260 nM; in data set [4], 2730 nM. The same compound yielded a CC50 at 48 h in data set [6] of more than 50000 nM.
